According to ChEMBL document CHEMBL5500360, “Discovery of N-(4-((6-(3,5- Dimethoxyphenyl)-9H-purine derivatives as irreversible covalent FGFR inhibitors” (Eur J Med Chem, 2024):
Active and inactive are the calls of the source. The rule behind the calls is not given here.

Columns and labels:
MDA-MB-231 [1] = assay: Cell cycle arrest in human MDA-MB-231 cells assessed as accumulation of G0-G1 phase cells at 2.5 uM incubated for 24 hrs by […]PI staining based flow cytometric analysis (reference value: 41.83%); assay type: functional
MDA-MB-231 [2] = assay: Cell cycle arrest in human MDA-MB-231 cells assessed as accumulation of G2-M phase cells at 2.5 uM incubated for 24 hrs by […]PI staining based flow cytometric analysis (reference value: 16.88%); assay type: functional
MDA-MB-231 [3] = assay: Cell cycle arrest in human MDA-MB-231 cells assessed as accumulation of G0-G1 phase cells at 5 uM incubated for 24 hrs by […]PI staining based flow cytometric analysis (reference value: 41.83%); assay type: functional
MDA-MB-231 [4] = assay: Cell cycle arrest in human MDA-MB-231 cells assessed as accumulation of G2-M phase cells at 5 uM incubated for 24 hrs by […]PI staining based flow cytometric analysis (reference value: 16.88%); assay type: functional
MDA-MB-231 [5] = assay: Cell cycle arrest in human MDA-MB-231 cells assessed as accumulation of S phase cells at 5 uM incubated for 24 hrs by […]PI staining based flow cytometric analysis (reference value: 41.29%); assay type: functional
MDA-MB-231 [6] = assay: Cell cycle arrest in human MDA-MB-231 cells assessed as accumulation of S phase cells at 10 uM incubated for 24 hrs by […]PI staining based flow cytometric analysis (reference value: 41.29%); assay type: functional
MDA-MB-231 [7] = assay: Induction of apoptosis in human MDA-MB-231 cells assessed as late apoptotic cells at 2.5 uM incubated for 24 hrs by Annexin V-FITC/PI staining based flow cytometric analysis (reference value: 0.161 %); assay type: functional
MDA-MB-231 [8] = assay: Induction of apoptosis in human MDA-MB-231 cells assessed as necrotic cells at 2.5 uM incubated for 24 hrs by Annexin V-FITC/PI staining based flow cytometric analysis (reference value: 0.063 %); assay type: functional
MDA-MB-231 [9] = assay: Induction of apoptosis in human MDA-MB-231 cells assessed as early apoptotic cells at 5 uM incubated for 24 hrs by Annexin V-FITC/PI staining based flow cytometric analysis (reference value: 0.131 %); assay type: functional
MDA-MB-231 [10] = assay: Induction of apoptosis in human MDA-MB-231 cells assessed as late apoptotic cells at 5 uM incubated for 24 hrs by Annexin V-FITC/PI staining based flow cytometric analysis (reference value: 0.161 %); assay type: functional
MDA-MB-231 [11] = assay: Induction of apoptosis in human MDA-MB-231 cells assessed as viable cells at 10 uM incubated for 24 hrs by Annexin V-FITC/PI staining based flow cytometric analysis (reference value: 99.645%); assay type: functional; details: read-out: Activity
MDA-MB-231 [12] = assay: Induction of apoptosis in human MDA-MB-231 cells assessed as necrotic cells at 10 uM incubated for 24 hrs by Annexin V-FITC/PI staining based flow cytometric analysis (reference value: 0.063 %); assay type: functional
MDA-MB-231 [13] = assay: Induction of apoptosis in human MDA-MB-231 cells assessed as apoptotic cells at 5 uM incubated for 24 hrs by Annexin V-FITC/PI staining based flow cytometric analysis relative to control; assay type: functional
MDA-MB-231 [14] = assay: Inhibition of cell migration in human MDA-MB-231 cells at 5 uM incubated for 12 hrs by cell scratch assay relative to control; assay type: functional
MDA-MB-231 [15] = assay: Induction of ROS production in human MDA-MB-231 cells incubated for 12 hrs by flow cytometry based confocal microscopic analysis; assay type: functional, cell-based; details: dose 2.5-10 µM
MDA-MB-231 [16] = assay: Induction of apoptosis in human MDA-MB-231 cells assessed as inhibition of total PARP protein expression incubated for 24 hrs by Western blot analysis; assay type: functional, cell-based; details: dose 2.5-10 µM
MDA-MB-231 [17] = assay: Induction of apoptosis in human MDA-MB-231 cells assessed as increase in cleaved-PARP protein expression incubated for 24 hrs by Western blot analysis; assay type: functional, cell-based; details: dose 2.5-10 µM
MDA-MB-231 [18] = assay: Induction of apoptosis in human MDA-MB-231 cells assessed as increase in Bax protein expression incubated for 24 hrs by Western blot analysis; assay type: functional, cell-based; details: dose 2.5-10 µM
MDA-MB-231 [19] = assay: Effect on FGFR1 protein expression in human MDA-MB-231 cells at 5 to 10 uM incubated for 24 hrs by Western blot analysis; assay type: functional, cell-based; details: dose 5-10 µM
[20] = Metabolic stability in human liver microsomes assessed as parent compound remaining at 1 uM measured after 5 mins by LC-MS/MS analysis; assay type: ADME, Microsome; details: read-out: Stability
[21] = Metabolic stability in human liver microsomes assessed as parent compound remaining at 1 uM measured after 45 mins by LC-MS/MS analysis; assay type: ADME, Microsome; details: read-out: Stability
[22] = Metabolic stability in rat liver microsomes assessed as parent compound remaining at 1 uM measured after 5 mins by LC-MS/MS analysis; assay type: ADME, Microsome; details: read-out: Stability
[23] = Metabolic stability in rat liver microsomes assessed as parent compound remaining at 1 uM measured after 15 mins by LC-MS/MS analysis; assay type: ADME, Microsome; details: read-out: Stability
[24] = Metabolic stability in mouse liver microsomes assessed as parent compound remaining at 1 uM measured after 30 mins by LC-MS/MS analysis; assay type: ADME, Microsome; details: read-out: Stability
[25] = Metabolic stability in mouse liver microsomes assessed as parent compound remaining at 1 uM measured after 45 mins by LC-MS/MS analysis; assay type: ADME, Microsome; details: read-out: Stability
[26] = Metabolic stability in human liver microsomes assessed as intrinsic clearance at 1 uM incubated for 45 mins by LC-MS/MS analysis; assay type: ADME, Microsome; details: read-out: CLH
[27] = Metabolic stability in rat liver microsomes assessed as half-life at 1 uM incubated for 45 mins by LC-MS/MS analysis; assay type: ADME, Microsome
[28] = Metabolic stability in rat liver microsomes assessed as intrinsic clearance at 1 uM incubated for 45 mins by LC-MS/MS analysis; assay type: ADME, Microsome; details: read-out: CLH
[29] = Metabolic stability in mouse liver microsomes assessed as half-life at 1 uM incubated for 45 mins by LC-MS/MS analysis; assay type: ADME, Microsome
MDA-MB-231 [30] = assay: Antitumor activity against human MDA-MB-231 cells xenografted in female BALB/c athymic nude mouse assessed as tumor growth inhibition at 20 mg/kg, po administered once a day via gavage for 21 days relative to control; assay type: functional; details: MDA-MB-231, 504 h, time 21 day, read-out: TGI
[31] = Toxicity in BALB/c athymic nude mouse xenografted with human MDA-MB-231 cells assessed as effect on spleen at 10 to 30 mg/kg, po administered once a day via gavage for 21 days by H and E staining based analysis; assay type: organism-based; details: in vivo, 504 h, dose 10-30 mg/kg, time 21 day
[32] = Toxicity in BALB/c athymic nude mouse xenografted with human MDA-MB-231 cells assessed as effect on lung at 10 to 30 mg/kg, po administered once a day via gavage for 21 days by H and E staining based analysis; assay type: organism-based; details: in vivo, 504 h, dose 10-30 mg/kg, time 21 day
[33] = Toxicity in BALB/c athymic nude mouse xenografted with human MDA-MB-231 cells assessed as effect on kidney at 10 to 30 mg/kg, po administered once a day via gavage for 21 days by H and E staining based analysis; assay type: organism-based; details: in vivo, 504 h, dose 10-30 mg/kg, time 21 day
MDA-MB-435 = assay: cells; details: Homo sapiens, MDA-MB-435, 72 h
Description: Antiproliferative activity against human MDA-MB-435 cells assessed as inhibition of cell growth incubated for 72 hrs by MTT assay

KYSE-150 cell line = assay: cells; details: Homo sapiens, KYSE-150, 72 h
Description: Antiproliferative activity against human KYSE-150 cells assessed as inhibition of cell growth incubated for 72 hrs by MTT assay

in vitro = details: human, HUVEC cells
Description: Cytotoxicity against HUVEC cells assessed as inhibition of cell growth incubated for 72 hrs by MTT assay

remaining at 5 min, 1 µM [20]: 85% | remaining at 0.75 h, 1 µM [21]: 33.8% | remaining at 5 min, 1 µM [22]: 73.4% | remaining at 0.25 h, 1 µM [23]: 40% | remaining at 0.5 h, 1 µM [24]: 8.63% | remaining at 0.75 h, 1 µM [25]: 3.58% | CLint scaled at 1 µM [26]: 42 mL/min/kg | half-life at 1 µM [27]: 15.9 min | CLint scaled at 1 µM [28]: 156 mL/min/kg | half-life at 1 µM [29]: 12.9 min | IC50 (MDA-MB-435): 9.17 µM | IC50 (KYSE-150 cell line): 1.93 µM | IC50 at 72 h (in vitro): 82.1 µM
SMILES: C=CC(=O)Nc1ccc(Cn2cnc3c(-c4cc(OC)cc(OC)c4)ncnc32)cc1
Activity (MDA-MB-231 [1]): 50.81% | Activity (MDA-MB-231 [2]): 14.94% | Activity (MDA-MB-231 [3]): 66.5% | Activity (MDA-MB-231 [4]): 10.68% | Activity (MDA-MB-231 [5]): 22.82% | Activity (MDA-MB-231 [6]): 10.73% | Activity (MDA-MB-231 [7]): 6.16% | Activity (MDA-MB-231 [8]): 2.66% | Activity (MDA-MB-231 [9]): 34.92% | Activity (MDA-MB-231 [10]): 14.25% | viability at 10 µM (MDA-MB-231 [11]): 37.2% | Activity (MDA-MB-231 [12]): 1.66% | Activity (MDA-MB-231 [13]): 45.4% | inhibition at 5 µM (MDA-MB-231 [14]): 82% | Activity (MDA-MB-231 [15]): Dose-Dependent Effect | Activity (MDA-MB-231 [16]): Dose-Dependent Effect | Activity (MDA-MB-231 [17]): Dose-Dependent Effect | Activity (MDA-MB-231 [18]): Dose-Dependent Effect | Activity (MDA-MB-231 [19]): inactive | inhibition in vivo at 20 mg/kg (MDA-MB-231 [30]): 64.2% | Activity [31]: Non-Toxic | Activity [32]: Non-Toxic | Activity [33]: Non-Toxic
